In ChEMBL document CHEMBL5608218, “Identification of 6,9-dihydro-5H-pyrrolo[3,2-h]quinazolines as a new class of F508del-CFTR correctors for the treatment of cystic fibrosis” (Eur J Med Chem, 2024):
Activity calls are given as the source filed them. The calls are words filed in the database; no cut-off is given here.

Tests used:
Format in all cases: cell-based
[1] = test system: Cystic fibrosis transmembrane conductance regulator (Homo sapiens), P13569 [F508del]; test: (§1) Corrector activity at CFTR F508del mutant (unknown origin) expressed in human CFBE41o- cells co-expressing halide-sensitive yellow fluorescent protein assessed as increase in iodide influx at 1 to 10 uM preincubated with compound for 24 hrs in presence of VX-809 followed by compound washout and measured after 30 mins of stimulation with forskolin/genistein by fluorescence microplate reader; conditions: filed as activator, dose 1-10 µM
Cystic fibrosis transmembrane conductance regulator (Homo sapiens), P13569 [F508del], sequence (P13569 as listed by the source): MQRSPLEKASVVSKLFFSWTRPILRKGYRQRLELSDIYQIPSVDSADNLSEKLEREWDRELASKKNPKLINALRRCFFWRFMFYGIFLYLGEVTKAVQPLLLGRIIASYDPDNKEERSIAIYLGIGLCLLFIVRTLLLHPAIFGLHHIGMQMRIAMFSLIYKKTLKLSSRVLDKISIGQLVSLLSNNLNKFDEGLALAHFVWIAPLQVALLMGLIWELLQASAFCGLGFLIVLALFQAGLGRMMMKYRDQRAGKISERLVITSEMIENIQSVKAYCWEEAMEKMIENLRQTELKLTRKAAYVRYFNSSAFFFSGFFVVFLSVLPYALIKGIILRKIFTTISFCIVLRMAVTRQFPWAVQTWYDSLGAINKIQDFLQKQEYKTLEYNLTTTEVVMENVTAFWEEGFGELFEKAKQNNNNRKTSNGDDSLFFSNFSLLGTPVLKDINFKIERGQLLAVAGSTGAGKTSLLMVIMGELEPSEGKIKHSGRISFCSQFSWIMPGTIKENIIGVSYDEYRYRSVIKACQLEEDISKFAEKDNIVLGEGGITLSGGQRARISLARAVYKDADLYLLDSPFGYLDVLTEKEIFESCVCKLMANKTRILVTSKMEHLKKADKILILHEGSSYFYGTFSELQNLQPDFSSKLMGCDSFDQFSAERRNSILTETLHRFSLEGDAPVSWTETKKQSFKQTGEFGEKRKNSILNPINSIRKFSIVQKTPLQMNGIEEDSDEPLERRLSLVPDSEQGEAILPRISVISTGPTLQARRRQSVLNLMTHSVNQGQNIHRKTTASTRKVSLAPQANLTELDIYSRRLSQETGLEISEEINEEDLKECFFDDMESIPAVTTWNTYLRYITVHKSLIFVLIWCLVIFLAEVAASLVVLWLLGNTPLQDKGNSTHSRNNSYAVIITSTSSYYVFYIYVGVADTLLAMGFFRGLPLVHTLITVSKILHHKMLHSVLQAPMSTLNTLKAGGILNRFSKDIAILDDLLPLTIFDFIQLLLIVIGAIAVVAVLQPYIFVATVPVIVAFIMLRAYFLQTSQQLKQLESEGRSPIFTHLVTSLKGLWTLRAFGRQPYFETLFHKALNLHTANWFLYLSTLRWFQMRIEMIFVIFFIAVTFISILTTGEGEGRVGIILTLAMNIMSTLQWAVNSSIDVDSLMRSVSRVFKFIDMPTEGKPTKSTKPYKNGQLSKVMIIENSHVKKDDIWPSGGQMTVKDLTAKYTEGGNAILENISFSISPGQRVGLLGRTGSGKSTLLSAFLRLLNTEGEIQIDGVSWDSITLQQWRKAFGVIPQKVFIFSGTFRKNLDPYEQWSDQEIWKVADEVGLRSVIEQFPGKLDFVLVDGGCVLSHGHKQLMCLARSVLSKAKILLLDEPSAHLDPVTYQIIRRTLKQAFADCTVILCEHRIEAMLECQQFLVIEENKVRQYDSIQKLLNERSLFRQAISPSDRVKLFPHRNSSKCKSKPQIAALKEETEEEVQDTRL

[2] = test system: Cystic fibrosis transmembrane conductance regulator (Homo sapiens), P13569 [F508del]; test: as §1, with “hrs” for “hrs in presence of VX-809”; conditions: dose 1-10 µM
[3] = test system: Cystic fibrosis transmembrane conductance regulator (Homo sapiens), P13569 [F508del]; test: as §1, with “by measuring fold change” for “at 1 to 10 uM”, “reader relative to VX-809 alone” for “reader”; conditions: filed as activator
[4] = target: T1, Cystic fibrosis transmembrane conductance regulator (Homo sapiens, UniProt P13569, F508DEL); test: as §1, with “influx” for “influx at 1 to 10 uM”
T1 sequence (P13569 as listed by the source): as above

[5] = target: T1, Cystic fibrosis transmembrane conductance regulator; test: as §1, with “influx” for “influx at 1 to 10 uM”, “hrs” for “hrs in presence of VX-809”
[6] = test system: Cystic fibrosis transmembrane conductance regulator (Homo sapiens), P13569 [F508del]; test: as §1, with “at” for “at 1 to”, “VX-445” for “VX-809”
[7] = test system: Cystic fibrosis transmembrane conductance regulator (Homo sapiens), P13569 [F508del]; test: as §1, with “at” for “at 1 to”, “corr-4a” for “VX-809”; conditions: filed as activator

CCOC(=O)c1c(Br)c2c(n1CC1CC1)-c1nc(NS(=O)(=O)c3ccccc3)ncc1CC2
Activity [1]: Active | Activity [2]: inactive

CCOC(=O)c1c(Br)c2c(n1Cc1cccc(Br)c1)-c1nc(NS(=O)(=O)c3ccccc3)ncc1CC2
fold change (FC) [3]: 2.3 | Activity [1]: Active | Activity ([2]; filed as activator): Active | EC50 [4]: 2.12 µM | EC50 [5]: 3.08 µM | Activity [6]: inactive | Activity [7]: Active

CCOC(=O)c1c(Br)c2c(n1Cc1ccc(Br)cc1)-c1nc(NS(=O)(=O)c3ccccc3)ncc1CC2
Activity [1]: Active | Activity [2]: inactive

CCOC(=O)c1c(Br)c2c(n1Cc1cccc(C)c1)-c1nc(NS(=O)(=O)c3ccccc3)ncc1CC2
Activity [1]: Active

CCOC(=O)c1c(Br)c2c(n1Cc1ccc(F)cc1)-c1nc(NS(=O)(=O)c3ccccc3)ncc1CC2
Activity [2]: inactive

CCOC(=O)c1c(Br)c2c(n1Cc1ccc(C)cc1)-c1nc(NS(=O)(=O)c3ccccc3)ncc1CC2
Activity [2]: inactive

CCOC(=O)c1c(Br)c2c(n1Cc1ccc(F)c(Br)c1)-c1nc(NS(=O)(=O)c3ccccc3)ncc1CC2
Activity [1]: Active | Activity ([2]; filed as activator): Active

CCOC(=O)c1c(Br)c2c(n1Cc1cccc(C)c1)-c1[nH]c(=O)c(S(=O)(=O)c3ccccc3)cc1CC2
fold change (FC) [3]: 2.4 | EC50 [4]: 0.45 µM | EC50 [5]: 0.75 µM | Activity [6]: inactive | Activity [7]: Active

CCOC(=O)c1cc2c(n1CC1CC1)-c1nc(NS(=O)(=O)c3ccccc3)ncc1CC2
Activity [2]: inactive

CCOC(=O)c1c(Cl)c2c(n1Cc1cccc(C)c1)-c1nc(NS(=O)(=O)c3ccccc3)ncc1CC2
fold change (FC) [3]: 2.1 | Activity [1]: Active | EC50 [4]: 1.88 µM | EC50 [5]: 3.14 µM | Activity [6]: inactive | Activity [7]: Active

CCOC(=O)c1cc2c(n1Cc1ccc(F)c(Br)c1)-c1nc(NS(=O)(=O)c3ccccc3)ncc1CC2
Activity [1]: Active | Activity ([2]; filed as activator): Active

CCOC(=O)c1cc2c(n1Cc1cccc(C)c1)-c1nc(NS(=O)(=O)c3ccccc3)ncc1CC2
Activity [1]: Active

CCOC(=O)c1c(Br)c2c(n1Cc1ccc(C)c(C)c1)-c1nc(NS(=O)(=O)c3ccccc3)ncc1CC2
Activity [1]: Active | Activity ([2]; filed as activator): Active

CCOC(=O)c1cc2c(n1Cc1ccc(C)cc1)-c1nc(NS(=O)(=O)c3ccccc3)ncc1CC2
Activity [2]: inactive

CCOC(=O)c1cc2c(n1Cc1cccc(Br)c1)-c1nc(NS(=O)(=O)c3ccccc3)ncc1CC2
Activity [2]: inactive

CCOC(=O)c1cc2c(n1Cc1ccc(Br)cc1)-c1nc(NS(=O)(=O)c3ccccc3)ncc1CC2
Activity [2]: inactive

Cc1cccc(Cn2c(C(=O)OC(C)C)c(Br)c3c2-c2nc(NS(=O)(=O)c4ccccc4)ncc2CC3)c1
Activity [1]: Active
